# PMC2806030, “Inhibition of mammalian S6 kinase by resveratrol suppresses autophagy” (Aging (Albany NY), 2009)
# How the values were obtained:
# Assay in all cases: biochemical
# Set-up in all cases: Upstate KinaseProfiler in vitro kinase activity assay, per cent of DMSO control
# Conditions in all cases: read-out: Activity (% of Control)
# [1] = target: CSK(h) (Homo sapiens, UniProt P41240)
# Description: (§1) Kinase profile and kinase assay. A Kinase profile against 100 kinases listed for resveratrol at 20 μM was generated utilizing Upstate's KinaseProfiler™ service. Assay protocols for each kinase are available from Upstate (Lake Placid, NY). In vitro kinase assay was performed as described previously. Briefly, HEK293 cells were transfected with HA-S6K1 wt, HA-S6K1 K100R, or vector as indicated. Cells were treated with 1 μg/ml insulin for 10 minutes prior to harvesting in PBS + 0.5% NP-40 + protease and phosphatase inhibitors. 125 μg of lysate per sample was immunoprecipitated using 0.5 μg/sample of anti-HA High-Affinity (Roche, Basel Switzerland). Beads from immunoprecipitations were washed three times in lysis buffer and once in kinase buffer, and kinase assays were performed with recombinant GST-S6 as substrate (1 μg per assay). In the indicated lanes varying doses of resveratrol or DMSO control were added to the reaction prior to addition of the GST-S6 substrate. All samples were subjected to SDS-PAGE, and 32P incorporation was quantified by using a Bio-Rad (Hercules, CA) Phosphor-Imager and subsequent analysis with ImageJ (NIH).  Figure 4. Resveratrol inhibits S6K1 in vitro. (A) Structural similarity between resveratrol and quercetin, a known kinase inhibitor. (B) Kinase inhibition profile for resveratrol at 20 μM obtained using KinaseProfiler™ (Upstate). Dashed line represents 100% activity as compared to control. Black filled-in bar on the graph indicates S6K1. Complete data set is provided in Supplementary Table 1. Error bars represent s.d.m. (C) Phosphorylation of recombinant GST-tagged S6 by immunoprecipitated HA-S6K1 under increasing concentrations of resveratrol (Res). Autoradiograph depicts S6K1 phosphorylation of GST-S6. (D) Average of three separate kinase assay experiments as performed in (C). Densitometry was performed using NIH ImageJ. Error bars represent s.e.m. […] Therefore, we hypothesized that the effect of resveratrol on autophagy could be related to inhibition of one or more upstream kinases. To test this, we performed an in vitro kinase screen and determined an inhibition profile for resveratrol. […] With the exception of S6K1, these kinases play primary roles in the hematopoietic system, and were thus viewed as unlikely to have been responsible for the effect we were studying. […] On the other hand, S6K1 is known to play a requisite role in the regulation of autophagy in Drosophila, making it a promising candidate for the in vivo target of resveratrol that is responsible for inhibition of autophagy.
# [2] = target: T1, MST1(h) (Homo sapiens, UniProt Q13043)
# T1 construct: gene STK4
# Description: as §1
# [3] = target: T2, Pim-2 (Homo sapiens, UniProt Q9P1W9)
# T2 construct: gene PIM2
# Description: as §1
# [4] = target: T3, PKCα(h) (Homo sapiens, UniProt P17252)
# T3 construct: gene PRKCA
# Description: as §1
# [5] = target: T4, Fms(h) (Homo sapiens, UniProt P07333)
# T4 construct: gene CSF1R
# Description: as §1
# [6] = target: CDK7/cyclinH/MAT1(h) (Homo sapiens, UniProt P50613)
# Description: as §1
# [7] = target: Fgr(h) (Homo sapiens, UniProt P09769)
# Description: as §1
# [8] = target: CDK1/cyclinB(h) (Homo sapiens, UniProt P06493)
# Description: as §1
# [9] = target: T5, PI 3-Kinaseγ(h) (Homo sapiens, UniProt P48736)
# T5 construct: gene PIK3CG
# Description: as §1
# [10] = target: T6, PKA(h) (Homo sapiens, UniProt P17612)
# T6 construct: gene PRKACA
# Description: as §1
# [11] = target: EGFR(h) (Homo sapiens, UniProt P00533)
# Description: as §1
# [12] = target: CDK9/cyclin T1(h) (Homo sapiens, UniProt P50750)
# Description: as §1
# [13] = target: T7, PKCζ(h) (Homo sapiens, UniProt Q05513)
# T7 construct: gene PRKCZ
# Description: as §1
# [14] = target: T8, PKCθ(h) (Homo sapiens, UniProt Q04759)
# T8 construct: gene PRKCQ
# Description: as §1
# [15] = target: T9, SAPK2a(T106M)(h) (Homo sapiens, UniProt Q16539, T106M)
# T9 construct: gene MAPK14
# Description: as §1
# [16] = target: T10, GSK3α(h) (Homo sapiens, UniProt P49840)
# T10 construct: gene GSK3A
# Description: as §1
# [17] = target: IRAK1(h) (Homo sapiens, UniProt P51617)
# Description: as §1
# [18] = target: T11, PKBß(h) (Homo sapiens, UniProt P31751)
# T11 construct: gene AKT2
# Description: as §1
# Fgr(h), sequence (P09769 whole entry): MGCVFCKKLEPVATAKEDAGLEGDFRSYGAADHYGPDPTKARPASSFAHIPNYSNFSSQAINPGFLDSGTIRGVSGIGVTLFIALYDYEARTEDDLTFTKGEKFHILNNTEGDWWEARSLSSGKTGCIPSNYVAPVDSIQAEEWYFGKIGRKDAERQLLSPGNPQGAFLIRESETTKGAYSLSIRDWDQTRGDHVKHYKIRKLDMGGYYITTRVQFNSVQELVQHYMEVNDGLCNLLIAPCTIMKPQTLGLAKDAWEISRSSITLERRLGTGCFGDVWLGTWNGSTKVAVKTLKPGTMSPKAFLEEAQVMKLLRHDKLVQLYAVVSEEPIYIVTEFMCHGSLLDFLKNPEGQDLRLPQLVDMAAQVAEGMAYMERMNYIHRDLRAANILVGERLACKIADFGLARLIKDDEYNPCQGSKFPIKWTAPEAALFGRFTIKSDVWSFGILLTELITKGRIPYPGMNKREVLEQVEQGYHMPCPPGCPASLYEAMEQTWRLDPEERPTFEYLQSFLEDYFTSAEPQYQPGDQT
# T10 sequence (P49840 whole entry): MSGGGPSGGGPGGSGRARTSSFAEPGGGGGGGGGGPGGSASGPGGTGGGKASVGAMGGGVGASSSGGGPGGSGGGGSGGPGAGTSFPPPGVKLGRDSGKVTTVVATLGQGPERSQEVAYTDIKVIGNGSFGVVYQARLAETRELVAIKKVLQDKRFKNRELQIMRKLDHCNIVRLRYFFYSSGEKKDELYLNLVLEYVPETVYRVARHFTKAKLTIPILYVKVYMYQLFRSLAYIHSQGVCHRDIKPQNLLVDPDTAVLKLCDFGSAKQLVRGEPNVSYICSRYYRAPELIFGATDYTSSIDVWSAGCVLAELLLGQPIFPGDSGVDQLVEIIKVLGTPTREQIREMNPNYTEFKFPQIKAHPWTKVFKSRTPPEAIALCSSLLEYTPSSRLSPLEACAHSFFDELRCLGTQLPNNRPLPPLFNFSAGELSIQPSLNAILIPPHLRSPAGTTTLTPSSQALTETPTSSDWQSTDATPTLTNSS
# T11 sequence (P31751 whole entry): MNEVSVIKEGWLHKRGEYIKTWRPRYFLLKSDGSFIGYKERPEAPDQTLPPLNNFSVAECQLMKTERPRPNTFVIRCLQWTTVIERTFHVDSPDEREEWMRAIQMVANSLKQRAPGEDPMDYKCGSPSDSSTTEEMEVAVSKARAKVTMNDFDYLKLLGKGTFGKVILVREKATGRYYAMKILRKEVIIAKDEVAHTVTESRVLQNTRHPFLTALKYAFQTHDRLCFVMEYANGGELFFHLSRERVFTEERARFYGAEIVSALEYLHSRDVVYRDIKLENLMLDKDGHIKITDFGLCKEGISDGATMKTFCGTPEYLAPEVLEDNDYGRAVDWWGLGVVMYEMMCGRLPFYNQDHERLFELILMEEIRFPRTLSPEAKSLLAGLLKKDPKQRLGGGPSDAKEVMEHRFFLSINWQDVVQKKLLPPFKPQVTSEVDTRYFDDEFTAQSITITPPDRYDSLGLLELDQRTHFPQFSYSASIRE
# CDK9/cyclin T1(h), sequence (P50750 whole entry): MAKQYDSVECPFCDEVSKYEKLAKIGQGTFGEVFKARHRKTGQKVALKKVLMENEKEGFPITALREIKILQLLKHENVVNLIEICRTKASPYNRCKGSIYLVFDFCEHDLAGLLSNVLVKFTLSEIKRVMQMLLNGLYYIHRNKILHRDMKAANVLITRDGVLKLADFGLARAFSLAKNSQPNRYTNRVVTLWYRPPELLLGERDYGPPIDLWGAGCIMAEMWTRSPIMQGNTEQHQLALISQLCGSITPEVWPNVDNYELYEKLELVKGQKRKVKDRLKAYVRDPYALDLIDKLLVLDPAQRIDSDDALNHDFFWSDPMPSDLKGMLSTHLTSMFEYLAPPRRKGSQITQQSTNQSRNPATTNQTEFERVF
# CDK9/cyclin T1(h), sequence (O60563 whole entry partner): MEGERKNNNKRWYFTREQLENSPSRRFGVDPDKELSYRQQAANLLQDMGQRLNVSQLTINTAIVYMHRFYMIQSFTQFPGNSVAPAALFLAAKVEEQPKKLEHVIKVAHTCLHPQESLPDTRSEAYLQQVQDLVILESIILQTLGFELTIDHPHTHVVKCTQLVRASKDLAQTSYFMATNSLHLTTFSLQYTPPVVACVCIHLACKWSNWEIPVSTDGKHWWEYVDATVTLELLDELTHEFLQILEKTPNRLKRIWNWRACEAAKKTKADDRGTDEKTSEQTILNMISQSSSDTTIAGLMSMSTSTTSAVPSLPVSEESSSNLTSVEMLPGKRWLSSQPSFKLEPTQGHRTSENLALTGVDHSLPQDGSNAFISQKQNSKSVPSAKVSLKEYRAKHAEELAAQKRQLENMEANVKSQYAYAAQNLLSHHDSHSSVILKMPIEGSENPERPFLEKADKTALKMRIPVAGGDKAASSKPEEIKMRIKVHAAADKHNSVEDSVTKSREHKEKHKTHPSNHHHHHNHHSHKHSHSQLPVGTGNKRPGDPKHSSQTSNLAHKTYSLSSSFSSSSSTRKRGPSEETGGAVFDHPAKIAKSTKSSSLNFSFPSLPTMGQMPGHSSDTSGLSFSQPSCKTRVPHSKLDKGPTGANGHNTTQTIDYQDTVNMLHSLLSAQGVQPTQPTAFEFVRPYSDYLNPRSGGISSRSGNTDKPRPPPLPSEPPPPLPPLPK
# T8 sequence (Q04759 whole entry): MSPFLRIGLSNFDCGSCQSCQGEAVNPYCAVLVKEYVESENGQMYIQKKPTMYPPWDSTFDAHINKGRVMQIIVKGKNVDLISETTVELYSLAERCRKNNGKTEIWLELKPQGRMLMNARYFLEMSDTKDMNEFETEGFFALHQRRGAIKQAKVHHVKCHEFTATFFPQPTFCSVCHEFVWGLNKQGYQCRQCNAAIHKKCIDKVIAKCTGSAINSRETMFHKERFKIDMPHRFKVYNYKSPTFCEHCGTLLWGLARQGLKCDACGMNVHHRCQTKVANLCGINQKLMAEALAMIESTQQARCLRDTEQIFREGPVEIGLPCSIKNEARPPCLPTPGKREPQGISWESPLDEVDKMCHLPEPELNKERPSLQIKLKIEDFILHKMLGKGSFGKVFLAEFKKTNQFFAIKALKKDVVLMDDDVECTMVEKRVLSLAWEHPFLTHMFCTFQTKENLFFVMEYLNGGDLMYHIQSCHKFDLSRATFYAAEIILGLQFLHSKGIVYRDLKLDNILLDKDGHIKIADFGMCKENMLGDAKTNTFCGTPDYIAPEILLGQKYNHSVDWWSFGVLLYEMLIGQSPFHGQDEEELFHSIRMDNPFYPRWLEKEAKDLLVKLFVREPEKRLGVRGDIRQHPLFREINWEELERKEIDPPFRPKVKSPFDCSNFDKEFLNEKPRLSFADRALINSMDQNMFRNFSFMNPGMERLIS
# EGFR(h), sequence (P00533 whole entry): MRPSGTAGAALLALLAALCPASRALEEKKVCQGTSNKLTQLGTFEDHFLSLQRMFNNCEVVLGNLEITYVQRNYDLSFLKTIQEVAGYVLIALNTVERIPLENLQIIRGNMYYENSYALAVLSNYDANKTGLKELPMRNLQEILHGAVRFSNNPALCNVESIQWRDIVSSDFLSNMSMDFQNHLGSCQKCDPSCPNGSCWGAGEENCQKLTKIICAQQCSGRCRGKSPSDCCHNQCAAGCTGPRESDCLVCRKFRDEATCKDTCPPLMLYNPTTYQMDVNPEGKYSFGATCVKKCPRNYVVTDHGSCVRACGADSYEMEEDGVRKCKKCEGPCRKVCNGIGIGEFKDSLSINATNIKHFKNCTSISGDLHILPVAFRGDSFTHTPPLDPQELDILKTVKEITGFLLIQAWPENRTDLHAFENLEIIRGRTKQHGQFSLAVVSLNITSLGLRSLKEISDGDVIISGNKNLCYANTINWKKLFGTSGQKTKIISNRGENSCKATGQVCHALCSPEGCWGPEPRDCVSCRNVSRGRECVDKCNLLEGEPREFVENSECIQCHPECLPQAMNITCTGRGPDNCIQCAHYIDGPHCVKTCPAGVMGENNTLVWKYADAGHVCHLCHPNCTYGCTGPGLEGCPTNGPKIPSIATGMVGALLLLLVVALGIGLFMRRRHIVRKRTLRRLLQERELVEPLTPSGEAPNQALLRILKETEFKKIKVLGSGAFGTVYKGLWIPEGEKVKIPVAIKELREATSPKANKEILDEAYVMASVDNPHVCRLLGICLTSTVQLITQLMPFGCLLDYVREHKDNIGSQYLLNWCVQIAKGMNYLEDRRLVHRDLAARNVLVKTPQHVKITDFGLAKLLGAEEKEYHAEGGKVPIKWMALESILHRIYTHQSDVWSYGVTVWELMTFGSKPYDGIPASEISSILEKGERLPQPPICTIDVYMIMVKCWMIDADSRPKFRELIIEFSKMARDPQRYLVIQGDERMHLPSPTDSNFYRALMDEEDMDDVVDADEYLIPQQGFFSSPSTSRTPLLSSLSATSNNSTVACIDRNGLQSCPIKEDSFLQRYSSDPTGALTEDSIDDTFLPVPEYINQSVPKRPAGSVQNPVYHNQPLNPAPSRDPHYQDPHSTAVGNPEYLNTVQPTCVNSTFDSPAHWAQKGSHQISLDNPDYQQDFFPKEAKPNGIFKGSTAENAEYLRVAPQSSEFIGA
# T1 sequence (Q13043 whole entry): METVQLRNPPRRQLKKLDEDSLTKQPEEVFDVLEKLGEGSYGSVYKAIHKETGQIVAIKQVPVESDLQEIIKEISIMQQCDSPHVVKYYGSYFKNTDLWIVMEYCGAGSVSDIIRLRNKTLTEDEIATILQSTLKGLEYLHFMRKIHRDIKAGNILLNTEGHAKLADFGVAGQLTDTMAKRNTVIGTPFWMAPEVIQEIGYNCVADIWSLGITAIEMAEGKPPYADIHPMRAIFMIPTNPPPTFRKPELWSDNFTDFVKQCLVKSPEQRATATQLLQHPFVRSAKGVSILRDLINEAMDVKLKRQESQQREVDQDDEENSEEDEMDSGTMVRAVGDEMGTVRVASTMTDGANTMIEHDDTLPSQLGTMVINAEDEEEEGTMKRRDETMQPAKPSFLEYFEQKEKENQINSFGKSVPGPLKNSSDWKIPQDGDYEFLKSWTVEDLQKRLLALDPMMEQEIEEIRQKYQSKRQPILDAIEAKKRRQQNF
compound,measurement,setting,value
"Oc1ccc(/C=C/c2cc(O)cc(O)c2)cc1 [Res, resveratrol]",remaining activity at 20 µM,[1],94 ± 5%
same,remaining activity at 20 µM,[2],75 ± 6%
same,remaining activity at 20 µM,[3],14 ± 2%
same,remaining activity at 20 µM,[4],114 ± 9%
same,remaining activity at 20 µM,[5],61 ± 2%
same,remaining activity at 20 µM,[6],95 ± 1%
same,remaining activity at 20 µM,[7],78 ± 5%
same,remaining activity at 20 µM,[8],67 ± 3%
same,remaining activity at 20 µM,[9],101 ± 1%
same,remaining activity at 20 µM,[10],100%
same,remaining activity at 20 µM,[11],90 ± 5%
same,remaining activity at 20 µM,[12],70 ± 3%
same,remaining activity at 20 µM,[13],89%
same,remaining activity at 20 µM,[14],99 ± 5%
same,remaining activity at 20 µM,[15],102 ± 2%
same,remaining activity at 20 µM,[16],79 ± 4%
same,remaining activity at 20 µM,[17],97%
same,remaining activity at 20 µM,[18],105 ± 3%
